Reference: patent US11912693B2, “Compounds for modulating S1P1 activity and methods of using the same” (TREVENA, INC., priority 2017, dated 2024)

Tests used:
[1] = target: T1, human sphingosine-1-phosphate receptor 1 (S1P1) (Homo sapiens (Human), UniProt P21453); test: Inhibition of cAMP production (HTRF cAMP HiRange), S1P1 CHO-K1 cells; format: cell-based; details: for hS1P1 cAMP pEC50: inhibition of cAMP production, S1P1 CHO-K1 cells; for Emax: CHO-K1, efficacy (SPAN) normalized to fingolimod, read-out: hS1P1 cAMP SPAN
Outline: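 CHO-K1 cells stably co-expressing human S1P1 (C-terminal Prolink tag) and EA-β-arrestin2 were grown in AssayComplete Media 6 at 37° C. and 5% CO2, plated, and incubated overnight. Agonist-driven inhibition of intracellular cAMP was read by TR-FRET with the HTRF cAMP HiRange kit on a PheraStar reader. Potency is pEC50, and efficacy (SPAN) is normalized to fingolimod.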
Target sequence in this assay (P21453 whole entry, looked up): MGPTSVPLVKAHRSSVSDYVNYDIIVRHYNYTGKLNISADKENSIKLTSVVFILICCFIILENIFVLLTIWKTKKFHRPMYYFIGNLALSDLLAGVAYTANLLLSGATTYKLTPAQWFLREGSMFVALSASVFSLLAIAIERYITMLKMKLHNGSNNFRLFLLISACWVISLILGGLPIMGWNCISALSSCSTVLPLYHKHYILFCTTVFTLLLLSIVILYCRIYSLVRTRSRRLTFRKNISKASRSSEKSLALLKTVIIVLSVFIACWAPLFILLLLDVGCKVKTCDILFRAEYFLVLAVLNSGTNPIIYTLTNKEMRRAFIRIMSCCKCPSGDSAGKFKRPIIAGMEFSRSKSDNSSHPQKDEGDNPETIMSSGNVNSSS

[2] = target: human sphingosine-1-phosphate receptor 3 (S1P3) (Homo sapiens (Human), UniProt Q99500); test: Inhibition of cAMP production (HTRF), S1P3 CHO-K1 cells; format: cell-based; details: inhibition of cAMP production, hS1P3
Sequence of human sphingosine-1-phosphate receptor 3 (S1P3) (Q99500 whole entry): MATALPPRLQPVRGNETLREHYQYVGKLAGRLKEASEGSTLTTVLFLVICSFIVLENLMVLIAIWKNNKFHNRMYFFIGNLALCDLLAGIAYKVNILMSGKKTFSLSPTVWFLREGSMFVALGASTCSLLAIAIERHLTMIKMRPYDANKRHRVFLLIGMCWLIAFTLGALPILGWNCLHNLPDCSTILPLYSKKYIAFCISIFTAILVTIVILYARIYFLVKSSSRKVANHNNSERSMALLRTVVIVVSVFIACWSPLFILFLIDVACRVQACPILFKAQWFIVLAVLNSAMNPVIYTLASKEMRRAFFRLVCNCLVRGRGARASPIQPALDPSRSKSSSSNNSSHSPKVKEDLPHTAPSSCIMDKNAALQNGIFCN

[3] = target: T1, human sphingosine-1-phosphate receptor 1 (S1P1); test: β-Arrestin2 recruitment assay (PathHunter), S1P1 CHO-K1 cells; format: cell-based; details: for hS1P1 B-arrestin2 pEC50: β-arrestin2 recruitment, S1P1 CHO-K1 cells; for Emax: CHO-K1, efficacy (SPAN) normalized to fingolimod, read-out: hS1P1 B-arrestin2 SPAN
Outline: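 Enzyme-fragment complementation read-out: agonist-driven β-arrestin2 binding to ProLink-tagged human S1P1 in stable CHO-K1 cells restores β-galactosidase, measured 1 h at room temperature after a 60 min 37° C. compound incubation. Potency as pEC50, efficacy relative to fingolimod (SPAN).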
Target sequence in this assay (P21453 whole entry, looked up): as the sequence (P21453 whole entry, looked up) above
Target sequence in this assay (P32121 whole entry partner, looked up): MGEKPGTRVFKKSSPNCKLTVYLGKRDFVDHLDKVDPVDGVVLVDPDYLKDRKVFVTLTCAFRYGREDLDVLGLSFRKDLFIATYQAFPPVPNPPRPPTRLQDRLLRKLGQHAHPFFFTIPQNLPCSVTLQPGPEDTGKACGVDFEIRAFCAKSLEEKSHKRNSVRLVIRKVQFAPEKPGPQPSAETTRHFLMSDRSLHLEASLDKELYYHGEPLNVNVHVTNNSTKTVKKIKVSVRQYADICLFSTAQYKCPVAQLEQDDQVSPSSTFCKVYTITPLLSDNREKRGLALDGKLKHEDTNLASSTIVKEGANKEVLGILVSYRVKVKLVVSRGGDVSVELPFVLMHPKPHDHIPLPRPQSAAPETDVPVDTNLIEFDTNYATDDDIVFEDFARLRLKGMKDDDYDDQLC

[4] = target: sphingosine-1-phosphate receptor 5 (S1P5) (Homo sapiens (Human), UniProt Q9H228); test: Inhibition of cAMP production (HTRF), S1P5 CHO-K1 cells; format: cell-based; details: inhibition of cAMP production, hS1P5
Sequence of sphingosine-1-phosphate receptor 5 (S1P5) (Q9H228 whole entry): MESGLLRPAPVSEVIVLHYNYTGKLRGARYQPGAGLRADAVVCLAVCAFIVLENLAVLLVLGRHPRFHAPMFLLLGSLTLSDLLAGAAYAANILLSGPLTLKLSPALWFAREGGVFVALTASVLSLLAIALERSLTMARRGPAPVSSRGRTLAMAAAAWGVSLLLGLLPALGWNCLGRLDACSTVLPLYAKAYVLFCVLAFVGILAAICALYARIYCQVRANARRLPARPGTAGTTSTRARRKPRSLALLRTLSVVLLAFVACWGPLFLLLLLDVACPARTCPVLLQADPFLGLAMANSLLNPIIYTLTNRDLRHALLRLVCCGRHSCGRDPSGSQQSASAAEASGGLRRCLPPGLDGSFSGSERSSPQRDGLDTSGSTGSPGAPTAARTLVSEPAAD

[5] = system: peripheral blood lymphocytes; test: Peripheral blood lymphocytes (lymphopenia) in c57bl/6 mice, acute and chronic studies; format: in vivo; details: peripheral blood lymphocytes vs vehicle; 6 mg/kg sc, 7 days
Procedure: Compounds were tested for changes in peripheral blood lymphocytes in c57bl/6 mice. In acute studies, animals (n=5/group) were dosed subcutaneously with test compound at a dose of 3 mg/kg. Animals were sacrificed at specific time points and 500 μl of whole blood was collected in EDTA (K2) Eppendorf tubes. Blood was stored on ice and shipped immediately overnight delivery to Charles River Laboratories for analysis. CRL ran samples through their WBC/differential panel on an Advia 120 instrument. We received peripheral lymphocyte counts (10^3 cells/μl) for each blood sample. Treatment group means were compared to a vehicle treatment group for statistical significance. In chronic studies, animals (n=6-8/group) were dosed subcutaneously with test compound either in a dose response paradigm (highest dose of 3 mg/kg) or in a screening paradigm at 6 mg/kg for seven days. On the seventh day, animals were sacrificed 45 minutes after the final dose. Whole blood was collected and analyzed as described for acute studies. […]

[6] = target: human sphingosine-1-phosphate receptor 2 (S1P2) (Homo sapiens (Human), UniProt O95136); test: Inositol monophosphate production (IP-one TB kit), S1P2 CHO-K1 cells; format: cell-based; details: inositol monophosphate accumulation, hS1P2
Sequence of human sphingosine-1-phosphate receptor 2 (S1P2) (O95136 whole entry): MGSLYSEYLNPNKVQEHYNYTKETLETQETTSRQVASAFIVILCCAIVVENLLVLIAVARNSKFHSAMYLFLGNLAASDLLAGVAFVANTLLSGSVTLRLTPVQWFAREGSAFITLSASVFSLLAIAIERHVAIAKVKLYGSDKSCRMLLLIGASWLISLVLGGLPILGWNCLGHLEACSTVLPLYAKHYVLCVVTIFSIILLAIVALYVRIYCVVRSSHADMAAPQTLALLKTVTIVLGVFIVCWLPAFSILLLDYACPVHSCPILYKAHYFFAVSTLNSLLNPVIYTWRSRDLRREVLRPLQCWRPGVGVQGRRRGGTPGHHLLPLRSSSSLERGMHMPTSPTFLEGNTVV
Outline: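 Stable CHO-K1 cells expressing EA-β-arrestin2 and Prolink-tagged human S1P2, plated overnight, then exposed to compounds in IP-one stimulation buffer for 60 min at 37 °C. IP1 read by TR-FRET after 1 h at RT. Efficacy (SPAN) normalized to CYM5520; potency as pEC50.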

[7] = system: paclitaxel induced peripheral neuropathy; test: Reversal of allodynia induced by paclitaxel in mice (s.c. or p.o., von Frey frequency method); format: in vivo, c57bl/6 mice; details: Mus musculus; for inhibition in vivo at 1 mg/kg: sc, 0.5 h, 1 mg/kg s.c., tested 30 min after dosing, read-out: Screen @ 1 mg/kg sc (% MPE); for inhibition in vivo at 3 mg/kg: po, 1 h, 3 mg/kg p.o., tested 60 min after dosing, read-out: Screen @ 3 mg/kg po (% MPE)
Outline: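 Neuropathy was induced in mice by paclitaxel (6 mg/kg i.p., days 1, 3, 5, 7) or oxaliplatin (4 mg/kg i.p., days 1-5), with re-testing about 14 days later. Compounds were given s.c. (tested at 30 min) or p.o. (tested at 60 min; paclitaxel only). A 0.4 g von Frey filament was applied ten times per paw, and % non-response was converted to % MPE.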

[8] = system: oxaliplatin induced peripheral neuropathy; test: Reversal of allodynia induced by oxaliplatin in mice (von Frey frequency method); format: in vivo, c57bl/6 mice; details: tested 30 min after dosing
Procedure: Compounds were tested for efficacy in mouse models of chemotherapy induced peripheral neuropathy. […] For these studies […]/6 mice are habituated to the test environment and baseline measurements of pain sensitivity are assessed. To determine mechanical responses, the threshold for responses to punctate mechanical stimuli (mechanical hyperalgesia) was tested according to the frequency method. In brief, the plantar surface of the animal hindpaw was stimulated with a single von Frey monofilament (0.4 g) for approximately 1-2 seconds. If there was a withdrawal response, it was recorded as a positive response. A response was defined as a lifting or shaking of the paw upon stimulation. This was repeated ten times for each mouse. The final measurement for each mouse is the % non-response to stimulation for the ten trials. The % non-response to stimulation is converted to a % MPE. For paclitaxel induced peripheral neuropathy, a series of injections of PAC (6 mg/kg, i.p.) on days 1, 3, 5 and 7 is used to induce peripheral neuropathy. After approximately 14 days from the initiation of PAC injections, animals are re-assessed for mechanical sensitivity. […] On test day animals are dosed with compounds either subcutaneously or orally and tested for mechanical response by the frequency method either 30 min (s.c.) or 60 min (p.o.) after drug administration. Data is presented as a % MPE. For oxaliplatin induced peripheral neuropathy, a series of injections of OXA (4 mg/kg, i.p.) on days 1-5 is used to induce peripheral neuropathy. After approximately 14 days from the initiation of PAC injections, animals are re-assessed for mechanical sensitivity. […] On test day animals are dosed with compounds subcutaneously and tested for mechanical response by the frequency method 30 min after drug administration. Data is presented as a % MPE. One or more of the compounds show reversal of chemotherapeutic induced peripheral neuropathy.

[9] = system: Freund's Complete Adjuvant induced inflammation / mechanical allodynia; test: Tactile allodynia produced by intraplantar Freund's Complete Adjuvant in rats (Randall-Selitto); format: in vivo, rat; details: CFA model, 24 hours after CFA
Procedure: Animals were acclimated to the vivarium for at least 48 hr prior to behavioral testing. Inflammation was induced with the administration of an intraplantar (subcutaneous injection into the plantar surface of the hind paw, i.pl.) injection of 0.10 ml Freund's Complete Adjuvant (FCA). The experiments were conducted 24 hours after CFA administration. Rats are tested for mechanical allodynia in a Randall-Selitto apparatus. The inflamed paw is put on a pedestal and a pointed force of increasing intensity (0 to 250 grams) is applied to the paw. When the animal struggles to withdraw from the force the test is stopped and the force to induce that struggle is recorded. Data is presented as mean grams of force to withdrawal or a percentage of the maximum possible effect.

hERG channel = hERG channel (Homo sapiens (Human), UniProt Q12809); test: Automated Qpatch patch-clamp hERG assay
Sequence of hERG channel (Q12809 whole entry): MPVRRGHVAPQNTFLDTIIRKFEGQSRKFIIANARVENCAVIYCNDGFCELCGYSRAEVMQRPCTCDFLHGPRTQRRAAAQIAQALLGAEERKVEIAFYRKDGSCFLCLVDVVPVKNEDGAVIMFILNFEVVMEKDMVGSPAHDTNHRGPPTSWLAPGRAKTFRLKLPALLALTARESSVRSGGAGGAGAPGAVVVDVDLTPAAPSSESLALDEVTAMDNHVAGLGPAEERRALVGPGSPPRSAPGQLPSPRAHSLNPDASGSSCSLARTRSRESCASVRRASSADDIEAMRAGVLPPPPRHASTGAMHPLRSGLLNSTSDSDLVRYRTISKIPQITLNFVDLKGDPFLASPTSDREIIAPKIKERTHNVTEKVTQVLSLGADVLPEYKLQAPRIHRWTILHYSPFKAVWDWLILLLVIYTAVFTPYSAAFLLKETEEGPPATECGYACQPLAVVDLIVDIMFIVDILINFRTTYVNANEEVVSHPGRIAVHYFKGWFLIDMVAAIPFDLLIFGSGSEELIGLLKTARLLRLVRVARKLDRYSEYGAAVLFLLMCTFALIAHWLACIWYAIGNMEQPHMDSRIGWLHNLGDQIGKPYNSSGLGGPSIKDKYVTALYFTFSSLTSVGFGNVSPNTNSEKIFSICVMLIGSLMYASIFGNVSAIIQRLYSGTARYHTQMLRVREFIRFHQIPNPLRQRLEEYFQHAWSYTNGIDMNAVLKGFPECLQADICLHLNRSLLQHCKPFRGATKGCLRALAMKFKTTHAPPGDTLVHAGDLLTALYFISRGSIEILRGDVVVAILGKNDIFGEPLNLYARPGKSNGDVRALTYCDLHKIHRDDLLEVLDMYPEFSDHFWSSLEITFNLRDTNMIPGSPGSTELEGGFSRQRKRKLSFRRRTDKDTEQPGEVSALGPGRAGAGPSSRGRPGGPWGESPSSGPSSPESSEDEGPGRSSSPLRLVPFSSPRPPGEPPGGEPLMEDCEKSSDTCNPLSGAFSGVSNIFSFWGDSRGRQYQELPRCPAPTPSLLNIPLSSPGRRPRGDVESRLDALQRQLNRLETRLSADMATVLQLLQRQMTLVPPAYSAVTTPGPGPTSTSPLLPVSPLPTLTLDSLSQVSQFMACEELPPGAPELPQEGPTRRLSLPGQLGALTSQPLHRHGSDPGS

[10] = system: A2780 human ovarian carcinoma; test: A2780 human ovarian carcinoma xenograft tumor growth delay in athymic nude mice; details: monotherapy vs control; paclitaxel i.v. qod×5; ozanimod or Compound 103 p.o. qd to end; 60-day study
Procedure: Female athymic nude mice (Crl:NU(NCr)-Foxnlnu, Charles River Laboratories) were implanted with A2780 human ovarian carcinoma cells to initiate tumor growth.
Each mouse received 1×10^7 cells (0.1 mL cell suspension) subcutaneously in the right flank, and tumors were monitored as their volumes approached the target range of 100 to 150 mm3. Fourteen days later, designated as Day 1 of the study, mice were sorted into six groups of ten each. […] Tumors were measured twice weekly for the study duration.
Starting on Day 1 of the study, six groups (n=10) of female athymic nude mice with established A2780 tumors were treated according to the following plan. Treatments were administered either by intravenous injection (i.v.) or oral gavage (p.o.) and were adjusted to the body weight of the individual animal. Group 1 received Vehicle 1, i.v., once every other day for five doses (qod×5) and Vehicle 2, p.o., once daily to the end of the study (qd to end), and served as the control group for efficacy analysis. Group 2, the paclitaxel monotherapy group, received paclitaxel i.v., qod×5 plus Vehicle 2, p.o., qd to end. Group 3, the ozanimod monotherapy group, received ozanimod p.o., qd to end plus Vehicle 1, i.v., qod×5. Combination Group 4 received ozanimod p.o., qd to end plus paclitaxel i.v., qod×5.
Animals were monitored individually, and each mouse was euthanized when its tumor reached the endpoint volume of 2000 mm3 or on the final day, whichever came first. The time to endpoint (TTE) was calculated for each mouse. Treatment outcome was determined from percent tumor growth delay (% TGD), defined as the percent increase in median TTE for treated versus control mice, with differences in TTE values between groups deemed statistically significant at P<0.05 using logrank survival analysis. Mice were also monitored for complete regression (CR) and partial regression (PR) responses. An animal with a CR at the end of the study was additionally classified as a tumor-free survivor (TFS). Treatment tolerability was assessed by body weight measurements and frequent observation for clinical signs of treatment-related side effects.

CC(C)n1nnc2cc(-c3nc(-c4cccc5c4OCO5)no3)ccc21 [Compound 32, 3-(benzo[d][1,3]dioxol-4-yl)-5-(1-isopropyl-1H-benzo[d][1,2,3]triazol-5-yl)-1,2,4-oxadiazole]
hS1P1 cAMP pEC50 [1]: >6.5
hS1P3 cAMP pEC50 [2]: <5.0
hS1P1 B-arrestin2 pEC50 [3]: >5
hS1P5 cAMP pEC50 [4]: <5.0
Lymphopenia: Effect and Doses, mg/kg, sc [5]: no change: 6 mg/kg, 7 days
hS1P2 IP-one pEC50 [6]: <5.0

COc1ccc(-c2noc(-c3ccc4c(c3)nnn4C(C)C)n2)c(C)c1 [Compound 55, 5-(1-isopropyl-1H-benzo[d][1,2,3]triazol-5-yl)-3-(4-methoxy-2-methylphenyl)-1,2,4-oxadiazole]
hS1P1 cAMP pEC50 [1]: >6.5
hS1P1 B-arrestin2 pEC50 [3]: >5
inhibition in vivo at 1 mg/kg [7]: < 50%
Lymphopenia: Effect and Doses, mg/kg, sc [5]: no change: 6 mg/kg, 7 days
Screen @ 3 mg/kg sc (% MPE) [8]: >50 % MPE

Cc1cnccc1-c1nc(-c2ccc3c(ccn3C(C)C)c2)no1 [Compound 142, 3-(1-isopropyl-1H-indol-5-yl)-5-(3-methylpyridin-4-yl)-1,2,4-oxadiazole]
Emax [1]: > 75%
hS1P1 cAMP pEC50 [1]: >6.5
Emax [3]: > 75%
hS1P1 B-arrestin2 pEC50 [3]: >5
inhibition in vivo at 3 mg/kg [7]: > 50%
inhibition in vivo at 1 mg/kg [7]: > 50%
Lymphopenia: Effect and Doses, mg/kg, sc [5]: no change: 6 mg/kg, 7 days
Screen @ 3 mg/kg sc (% MPE) [8]: >50 % MPE
Active Doses, mg/kg sc (>50% MPE) [9]: ≥0.1 mg/kg

Cc1ccsc1-c1noc(-c2ccc3c(c2)nnn3C(C)C)n1 [Compound 169, 5-[3-(3-methylthiophen-2-yl)-1,2,4-oxadiazol-5-yl]-1-(propan-2-yl)-1H-1,2,3-benzotriazole]
hS1P1 cAMP pEC50 [1]: >6.5
hS1P1 B-arrestin2 pEC50 [3]: >5
inhibition in vivo at 1 mg/kg [7]: > 50%
Lymphopenia: Effect and Doses, mg/kg, sc [5]: no change: 6 mg/kg, 7 days
Screen @ 3 mg/kg sc (% MPE) [8]: >50 % MPE

N#Cc1cc(-c2nc(-c3ccc4c(c3)NC(=O)C4)no2)ccc1NCC1CC1 [Compound 497, 2-((cyclopropylmethyl)amino)-5-(3-(2-oxoindolin-6-yl)-1,2,4-oxadiazol-5-yl)benzonitrile]
hS1P1 cAMP pEC50 [1]: >6.5
hS1P1 B-arrestin2 pEC50 [3]: >5
inhibition in vivo at 3 mg/kg [7]: < 50%
IC50 (hERG channel): > 10 µM

CC(F)(F)CNc1ccc(-c2nnc(-c3ccc4[nH]cnc4c3)o2)cc1C#N [Compound 520, 5-[5-(1H-1,3-benzodiazol-5-yl)-1,3,4-oxadiazol-2-yl]-2-[(2,2-difluoropropyl)amino]benzonitrile]
Emax [1]: > 75%
hS1P1 cAMP pEC50 [1]: >6.5
Emax [3]: > 75%
hS1P1 B-arrestin2 pEC50 [3]: >5
inhibition in vivo at 3 mg/kg [7]: > 50%
Lymphopenia: Effect and Doses, mg/kg, sc [5]: no change: 6 mg/kg, 7 days
IC50 (hERG channel): > 10 µM

CC(C)Nc1ccc(-c2nc(-c3ccc4nonc4c3)no2)cc1C#N [Compound 730, 5-[3-(2,1,3-benzoxadiazol-5-yl)-1,2,4-oxadiazol-5-yl]-2-[(propan-2-yl)amino]benzonitrile]
inhibition in vivo at 3 mg/kg [7]: > 50%
Lymphopenia: Effect and Doses, mg/kg, sc [5]: no change: 6 mg/kg, 7 days
IC50 (hERG channel): > 10 µM

CC(C)Oc1ccc(-c2ncc(-c3cccnc3)cn2)cc1C#N [Compound 738, 2-isopropoxy-5-(5-(pyridin-3-yl)pyrimidin-2-yl)benzonitrile]
IC50 (hERG channel): > 10 µM

CC(C)Oc1ccc(-c2ncc(-c3ccccn3)cn2)cc1C#N [Compound 742, 2-isopropoxy-5-(5-(pyridin-2-yl)pyrimidin-2-yl)benzonitrile]
IC50 (hERG channel): > 10 µM

CC(C)Nc1ccc(-c2ncc(-c3ccnc(O)c3)cn2)cc1C#N [Compound 743, 5-(5-(2-hydroxypyridin-4-yl)pyrimidin-2-yl)-2-(isopropylamino) benzonitrile]
IC50 (hERG channel): > 10 µM

CC(C)Oc1ccc(-c2ncc(-c3ccnc(O)c3)cn2)cc1C#N [Compound 744, 5-(5-(2-hydroxypyridin-4-yl)pyrimidin-2-yl)-2-isopropoxybenzonitrile]
IC50 (hERG channel): > 10 µM

CC(=O)O[C@H]1C(=O)[C@@]2(C)[C@H]([C@H](OC(=O)c3ccccc3)[C@]3(O)C[C@H](OC(=O)[C@H](O)[C@@H](NC(=O)c4ccccc4)c4ccccc4)C(C)=C1C3(C)C)[C@]1(OC(C)=O)CO[C@@H]1C[C@@H]2O [Paclitaxel, reference compound]
percent tumor growth delay (% TGD), monotherapy [10]: 128%

CC(C)Oc1ccc(-c2nc(-c3cccc4c3CC[C@@H]4NCCO)no2)cc1C#N [ozanimod, reference compound]
percent tumor growth delay (% TGD), monotherapy [10]: 31%
